Measured values: patent publication US7087252B2, “Medicinal preparation containing phenylethanoid glycosides extracted from herbaceous plant, Cistanche tubulosa (Schrenk.) Wight, process of making the same, and uses of the same” (Sinphar Pharmaceutical Co., Ltd., priority 2003, dated 2006)

Columns and labels:
[1] = tested on: learning memory of LACA mice; assay: Water maze experiment, effect on learning memory of mice (d value analysis of response time); assay type: in vivo; conditions: 400 mg/kg orally vs control group; second time test; n = 27
From the text: The medicinal preparation of the present invention was used in a water maze experiment to study its effect on the learning memory of LACA mice. The Piracetam Tablets was used as a positive comparative drug for testing 6 days per week. The test lasted for 27 days. According to the data listed in the Table 2, it is readily apparent that the preparation of the present invention has a meaningful effect on the learning memory of the mice, as exemplified by the difference in the response time between the control group and the doped groups, which were respectively doped with 50 mg/kg of the preparation containing phenylethanoid glycosides, 200 mg/kg of the preparation containing phenylethanoid glycosides, and 400 mg/kg of the preparation containing phenylethanoid glycosides.

[2] = tested on: memory loss of LACA mice induced by ethanol; assay: Water maze experiment, prevention of memory loss induced by ethanol; assay type: in vivo; conditions: 400 mg/kg, one-week orally
Method: The effect of the preparation of the present invention on the prevention of memory loss by the LACA mice was studied by the water maze experiment. The mice were orally administered with the drugs. One hour after such an oral administration, they were provided with 30% ethanol 0.1 ml/10 g BW. In 30 minutes, the water maze experiment was started.

[3] = tested on: thrombosis of the vein bypass of rats; assay: Thrombosis of the vein bypass of rats; assay type: in vivo, male SD rats; conditions: 100 mg/kg orally
From the text: A study was done on the effect of the preparation of the present invention on thrombosis of the vein bypass of the rats. The male SD rats were studied as compared with the aspirin. Thrombosis inhibition rate (%)=(distilled water comparative group thrombosis weight−drug group thrombosis weight)/distilled water comparative group thrombosis weight×100%.

[4] = tested on: blood platelets aggregation of rats; assay: ADP-caused aggregation of blood platelets of rats after oral administration; assay type: in vivo, male SD rats; conditions: 100 mg/kg orally for 7 days
Method: A study was done on the effect of the preparation of the present invention on aggregation of blood platelets of the rats.
The aggregation of blood platelets was caused by using adenosine disodium diphosphate (ADP). 1 mg/ml ADP solution was kept refrigerated before use. When the ADP solution was about to be used, it was diluted three times with the phosphoric acid buffer solution.
The male SD rats were randomly divided into five groups in accordance with the body weight. These five groups were the distilled water comparative group, the aspirin group, the 200 mg/kg preparation group, the 100 mg/kg preparation group, and the 50 mg/kg preparation group. The drugs were orally administered, with the administration volume being […]. The rats of the distilled water comparative group were given distilled water in same quantity. The administration continued for 7 days. The rats were not fed for 12 hours prior to the final administration. One hour after the final administration the blood was drawn out from the main artery. The blood so draw out was prevented from aggregation by 3.8% sodium citrate (1:9). […] The aggregation degree was determined by using a SPA-4 multifunctional blood platelet aggregation meter. The inhibition rate of the blood platelet aggregation is calculated by the following formula. […]

Row | Structure (SMILES) | d value ≧0.5, % [1] [%] | d value ≧0.5, day [1] [days] | d value ≧0.5 sum, % [1] [%] | d value ≧0.5 sum, day (period when the response time shows meaningful difference) [1] [days] | d value ≧0.8, % [1] [%] | d value ≧0.8, day [1] [days] | Arrival at destination after being trained, Error number [2] | Arrival at destination after being trained, Time [2] [s] | Arrival at destination after being trained, error number of animal [2] | Arrival at destination after being given alcohol, Error number ([2]; 30% ethanol 0.1 ml/10 g BW) | Arrival at destination after being given alcohol, Error rate ([2]; 30% ethanol 0.1 ml/10 g BW) | Arrival at destination after being given alcohol, Group error rate ([2]; 30% ethanol 0.1 ml/10 g BW) | Arrival at destination after being given alcohol, error number of animal ([2]; 30% ethanol 0.1 ml/10 g BW) | thrombosis inhibition rate ([3]; vs distilled water comparative group) [%] | thrombosis weight ([3]; x ± SD) [mg] | aggregation inhibition ([4]; vs distilled water group) [%] | maximum aggregation ([4]; ±SD) [%]
1 | NC(=O)CN1CCCC1=O [Piracetam] | 18.5 | 5 | 25.5 | 7 | 7.4 | 2 | 0/0 | 8.00 ± 0.46 | 0/0 | 54 | 9.00 times/number of animal | 5.40 times/number of animal | 6 |  |  |  | 
2 | CC(=O)Oc1ccccc1C(=O)O [aspirin] |  |  |  |  |  |  |  |  |  |  |  |  |  | 34.97 | 29.2 ± 4.00 | 40.30 | 32.73 ± 11.14
